# Results: patent US10662194B2, “Substituted 6-anilino-9-heterocyclylpurine derivatives for inhibition of plant stress” (UNIVERZITA PALACKEHO V OLOMOUCI, priority 2014, dated 2020)
# Marks after values point to notes of the source that are not given here.
# Key:
# [1] = tested on: CKX1 overproducing (35S:CKX1) Arabidopsis seedlings; experiment: In vitro shoot and root growth of cytokinin deficient Arabidopsis plants; assay type: in vivo
# From the text: Constitutive overexpression of CKX in 35S:CKX1 plants leads to enhanced root growth. If CKX inhibitor can restore WT phenotype, it is expected that inhibition of the CKX activity in 35S:AtCKX1 plants should thus have no effect or inhibit their root growth. Such observation was done in case of INCYDE, but not compound 12.
# [2] = Calcein AM viability/cytotoxicity assay, MRC-5; assay type: cell-based; conditions: human, MRC-5 lung fibroblasts; MRC-5, 72 h, FIG. 11; read-out: IC50, concentration reducing number of viable cells to 50%
# From the text: Absence of toxic effects against mammalian (especially human) cell lines in a wide concentration range is one of the requirements on compounds intended for use in agriculture and medicine. Because toxic compounds negatively influence metabolic processes in cells, many standard cytotoxicity assays are based on measurement of metabolisation rate of various artificial substrates. Resulting product is then quantified e.g. by means of spectrometry. The assays can be easily modified for use in 96-well plates. For evaluation of cytotoxic effect of compounds of this invention, a microtiter assay based on quantification of metabolisation of Calcein AM was used. The assay is widely used in drug screening programs and in chemosensitivity testing. In live cells, Calcein AM is enzymatically hydrolysed and accumulation of resulting calcein is manifested by green fluorescence. The cytotoxicity of the studied compounds was determined with human fibroblast lines MRC-5 (lung fibroblasts) and BJ (foreskin fibroblasts). […] The fluorescence of the live cells was measured at 485 nm/538 nm (excitation/emission) with a Fluoroskan Ascent microplate reader (Labsystems). […]
# [3] = tested on: maize hybrides Amadeo and Zidane; experiment: Seed coating, shoot biomass of silage maize (field experiment); assay type: in vivo
# Protocol: Based on the results discussed in previous Example 25, field plot experiments were performed on two different locations (Kroměříž Czech Republic; Olomouc, Czech Republic) in years 2012 and 2013 to evaluate the effect of seed coating with compound 12 on biomass formation of maize. In
# the season 2012 the seeds of maize (hybrid Amadeo; KWS, FAO 230) were coated with 10 and 50 μM water solution of compound 12 (8 L of solution per 1000 kg of seeds). The seeds were dried and then sown in the sowing rate 90.000 seeds per hectare in 4 replications per each variant in randomized positions (each replication was 10 square meter plot). The plants were harvested when reached the stage of 33-34% of dry mass. The plants were then analyzed for their moisture and standardized dry mass.
# The experiment was repeated in the season 2013 with 50 μM concentration of compound 12 in the same experimental design with maize hybrid Zidane (KWS, FAO 250).
# [4] = tested on: shoot rosettes of Arabidopsis; experiment: Leaf chlorophyll degradation in dark-incubated shoot rosettes; assay type: in vivo; conditions: 6 days in the dark
# Protocol: The effect of the compound 12 on retention of chlorophyll in the dark treated plants was tested using app. 18 DAG (days after germination) old Arabidopsis plants grown in vitro on standard MS medium (16 h/8 h light/dark regime, light intensity 120 μmol·m^−l·s^−1). Shoots of the plants were excised from the roots and the whole rossetes were placed into 6-well plate (one rosete per well) into water (3 mL per well) containing 0.01% DMSO (solvent control), or compound 12, cytokinin BAP and CKX inhibitor INCYDE (2-chloro-6-(3-methoxyanilino)purine), in concentrations of 0.01, 0.1, 1 and 10 μM. The plates were then incubated in the dark for 6 days at 25° C. After incubation chlorophyll from each rosette was extracted into 1.8 mL of 80% ethanol, during 30 min of heating to 80° C. The chlorophyll content in extracts was measured spectrofotometricaly at 665 nm. […] In this concentration the rosettes kept around 95% of chlorophyll.
smiles,measurement,setting,value
"COc1cccc(Nc2nc(Cl)nc3c2ncn3C2CCCCO2)c1 (stereo not drawn) [compound 12, 2-chloro-6-(3-methoxyanilino)-9-(tetrahydropyran-2-yl)purine]",complementation of wild type shoot phenotype,"[1]; 0.1 μM in MS medium, FIG. 3, 4",led to restauration of wild type shoot phenotype
same,root biomass of 35S:CKX1 plants,"[1]; tested concentration range, FIG. 5",strong dose-dependent positive effect
same,IC50 at 72 h,[2],> 100 µM
same,Absolute dry matter yield,"[3]; 10 μM, Kroměříž, 2012",23.06 t/ha
same,Absolute green matter yield,"[3]; 10 μM, Kroměříž, 2012",52.19 t/ha
same,Height before harvest,"[3]; 10 μM, Kroměříž, 2012",276.6 cm
same,Height before harvest (% of control),"[3]; 10 μM, Kroměříž, 2012",101.0 % of control
same,Relative dry matter yield (% of control),"[3]; 10 μM, Kroměříž, 2012",110.85 % of control
same,Absolute dry matter yield,"[3]; 10 μM, Olomouc, 2012",17.01 t/ha
same,Absolute green matter yield,"[3]; 10 μM, Olomouc, 2012",43.20 t/ha
same,Height before harvest,"[3]; 10 μM, Olomouc, 2012",237.3 cm
same,Height before harvest (% of control),"[3]; 10 μM, Olomouc, 2012",98.3 % of control
same,Relative dry matter yield (% of control),"[3]; 10 μM, Olomouc, 2012",110.94 % of control
same,average silage yield counted from all trials,"[3]; 10 μM, counted from 2 trials",110.9%
same,Absolute dry matter yield,"[3]; 50 μM, Kroměříž, 2012",22.18 t/ha
same,Absolute green matter yield,"[3]; 50 μM, Kroměříž, 2012",49.52 t/ha
same,Height before harvest,"[3]; 50 μM, Kroměříž, 2012",273.5 cm
same,Height before harvest (% of control),"[3]; 50 μM, Kroměříž, 2012",99.8 % of control
same,Relative dry matter yield (% of control),"[3]; 50 μM, Kroměříž, 2012",106.63 % of control
same,Absolute dry matter yield,"[3]; 50 μM, Kroměříž, 2013",22.33 t/ha
same,Absolute green matter yield,"[3]; 50 μM, Kroměříž, 2013",66.47 t/ha
same,Relative dry matter yield (% of control),"[3]; 50 μM, Kroměříž, 2013",107.82* % of control
same,Absolute dry matter yield,"[3]; 50 μM, Olomouc, 2012",17.80 t/ha
same,Absolute green matter yield,"[3]; 50 μM, Olomouc, 2012",44.31 t/ha
same,Height before harvest,"[3]; 50 μM, Olomouc, 2012",235.8 cm
same,Height before harvest (% of control),"[3]; 50 μM, Olomouc, 2012",97.7 % of control
same,Relative dry matter yield (% of control),"[3]; 50 μM, Olomouc, 2012",116.06 % of control
same,Absolute dry matter yield,"[3]; 50 μM, Olomouc, 2013",19.23 t/ha
same,Absolute green matter yield,"[3]; 50 μM, Olomouc, 2013",68.78 t/ha
same,Height before harvest,"[3]; 50 μM, Olomouc, 2013",246.4 cm
same,Height before harvest (% of control),"[3]; 50 μM, Olomouc, 2013",100.8 % of control
same,Relative dry matter yield (% of control),"[3]; 50 μM, Olomouc, 2013",101.33 % of control
same,average silage yield counted from all trials,"[3]; 50 μM, counted from 3 trials",105.3%
same,effect on the plant height,"[3]; seed treatment, all field plot experiments",without any effect on the plant height
same,chlorophyll kept in rosettes,[4]; 1 μM,around 95%
same,"retention of chlorophyll, activity versus BAP and INCYDE","[4]; 0.01-10 μM, FIG. 7",highest activity in 1 μM concentration
